Test results: the supplement of paper PMC13207355
Counter-ions that a name gives are not always drawn.

Tests used:
Conditions in all cases: exposure time: 72 h
[1] = test system: E28 (patient-derived glioblastoma stem cells of classical subtype); experiment: surviving fraction (nuclei count normalised to DMSO); higher = more cells surviving (less toxic)
[2] = test system: E21 (patient-derived glioblastoma stem cells of mesenchymal subtype); experiment: as above
[3] = test system: E57 (patient-derived glioblastoma stem cells of mesenchymal subtype); experiment: as above
[4] = test system: E13 (patient-derived glioblastoma stem cells of classical subtype); experiment: as above
[5] = test system: E34 (patient-derived glioblastoma stem cells of proneural subtype); experiment: as above
[6] = test system: FT3469 (normal neural stem cell line); experiment: as above
[7] = test system: E31 (patient-derived glioblastoma stem cells of proneural subtype); experiment: as above
[8] = test system: E28; experiment: phenotypic distance (Euclidean, principal components) from DMSO controls (arbitrary units); higher = stronger morphological change
[9] = test system: E21; experiment: as above
[10] = test system: E57; experiment: as above
[11] = test system: E13; experiment: as above
[12] = test system: E34; experiment: as above
[13] = test system: FT3469; experiment: as above
[14] = test system: E31; experiment: as above
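Throughout, for phenotypic distance (Euclidean, principal components) from DMSO controls: cell Painting imaging in 384-well plates, CellProfiler features reduced to at least 20 principal components, Euclidean distance versus same-plate DMSO vehicle wells (0.1% v/v), median over six images per well.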
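Throughout, for surviving fraction (nuclei count normalised to DMSO): nuclei counted by high-content imaging of Hoechst-stained cells in laminin-coated 384-well plates, relative to 0.1% DMSO vehicle wells, with staurosporine as cell-death control.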

CC(C)NCC(O)c1ccc(O)c(O)c1 (stereo not drawn) [Isoproterenol hydrochloride]
Conditions	phenotypic distance	surviving fraction
[1], 4.1 nM	–	1.14
[1], 12.3 nM	–	1.19
[1], 37 nM	–	1.05
[1], 111.1 nM	–	1.09
[1], 333.3 nM	–	1.17
[1], 1000 nM	–	1.1
[1], 3000 nM	–	1.22
[2], 4.1 nM	–	0.983
[2], 12.3 nM	–	0.836
[2], 37 nM	–	0.946
[2], 111.1 nM	–	0.954
[2], 333.3 nM	–	0.957
[2], 1000 nM	–	1.03
[2], 3000 nM	–	0.989
[3], 4.1 nM	–	1.01
[3], 12.3 nM	–	0.941
[3], 37 nM	–	0.999
[3], 111.1 nM	–	0.974
[3], 333.3 nM	–	1.12
[3], 1000 nM	–	1.14
[3], 3000 nM	–	1.11
[4], 4.1 nM	–	0.935
[4], 12.3 nM	–	0.961
[4], 37 nM	–	1.01
[4], 111.1 nM	–	0.949
[4], 333.3 nM	–	0.974
[4], 1000 nM	–	0.842
[4], 3000 nM	–	1
[5], 4.1 nM	–	1.03
[5], 12.3 nM	–	1
[5], 37 nM	–	1.13
[5], 111.1 nM	–	1.09
[5], 333.3 nM	–	1.15
[5], 1000 nM	–	1.11
[5], 3000 nM	–	1.11
[6], 4.1 nM	–	0.975
[6], 12.3 nM	–	1.04
[6], 37 nM	–	0.928
[6], 111.1 nM	–	1.15
[6], 333.3 nM	–	1.18
[6], 1000 nM	–	1.04
[6], 3000 nM	–	1.1
[7], 4.1 nM	–	0.999
[7], 12.3 nM	–	1.05
[7], 37 nM	–	0.967
[7], 111.1 nM	–	0.989
[7], 333.3 nM	–	1.02
[7], 1000 nM	–	1.27
[7], 3000 nM	–	1.24
[8], 4.1 nM	1.26	–
[8], 12.3 nM	0.749	–
[8], 37 nM	0.577	–
[8], 111.1 nM	0.661	–
[8], 333.3 nM	0.903	–
[8], 1000 nM	0.652	–
[8], 3000 nM	0.87	–
[9], 4.1 nM	1.03	–
[9], 12.3 nM	0.961	–
[9], 37 nM	0.559	–
[9], 111.1 nM	0.37	–
[9], 333.3 nM	0.707	–
[9], 1000 nM	0.442	–
[9], 3000 nM	0.786	–
[10], 4.1 nM	0.878	–
[10], 12.3 nM	0.696	–
[10], 37 nM	0.871	–
[10], 111.1 nM	1.09	–
[10], 333.3 nM	1.1	–
[10], 1000 nM	3.04	–
[10], 3000 nM	1.28	–
[11], 4.1 nM	1.71	–
[11], 12.3 nM	1.34	–
[11], 37 nM	1.11	–
[11], 111.1 nM	0.927	–
[11], 333.3 nM	0.863	–
[11], 1000 nM	0.656	–
[11], 3000 nM	0.895	–
[12], 4.1 nM	0.806	–
[12], 12.3 nM	0.933	–
[12], 37 nM	0.861	–
[12], 111.1 nM	0.633	–
[12], 333.3 nM	0.9	–
[12], 1000 nM	0.781	–
[12], 3000 nM	0.963	–
[13], 4.1 nM	1.05	–
[13], 12.3 nM	0.977	–
[13], 37 nM	1.54	–
[13], 111.1 nM	0.756	–
[13], 333.3 nM	1.08	–
[13], 1000 nM	0.765	–
[13], 3000 nM	1.18	–
[14], 4.1 nM	3.31	–
[14], 12.3 nM	0.604	–
[14], 37 nM	0.63	–
[14], 111.1 nM	0.645	–
[14], 333.3 nM	0.706	–
[14], 1000 nM	0.745	–
[14], 3000 nM	0.88	–
